From US20260248881A1, “PHARMACEUTICAL COMPOSITION COMPRISING FOXM1 INHIBITOR AND IMMUNE CHECKPOINT INHIBITOR FOR PREVENTING OR TREATING CANCER” (National Cancer Center, priority 2022, published 2026) come the findings set out here.

This assay concerns H1299 and PC9 cells. The experiment in a line: Cell cycle distribution analysis (PI staining, flow cytometry). In kind it is cell-based, human. Here is the method:
Both H1299 and PC9 cells were enzymatically dissociated using TrypLE (#12605-010; Thermo Fisher Scientific), collected by centrifugation at 2,000×g for 2 minutes, resuspended in PBS, fixed in 70% ethanol, and stored overnight at 4° C. Fixed cells were pelleted, washed twice with PBS, resuspended in FxCycle propidium iodide (PI)/RNase staining solution (#F10797; Thermo Fisher Scientific), and incubated in the dark at 37° C. for 30 minutes. Flow cytometry was performed using a FACS-LSR Fortessa flow cytometer (BD Biosciences, Santa Clara, CA, USA).

Where [1] appears, read: vs NC siRNA or DMSO-treated group, time-dependent.

Take thiostrepton [TST]: where the note is “both cell lines, vs DMSO-treated group”, the G2 population entry is listed as “an increase in the G2 population”. Also, under setting [1], the S phase population result was “decreased a S phase population” and the sub-G0/G1 population entry is “increased the sub-G0/G1 population”.
